Data set [1] in a line: Aqueous solubility at 25° C. of carvedilol free base and three salts (Table 13). The class given is physicochemical.
Text: Aliquots were taken out at various time-point, filtered through 0.45 μm Acrodisc GHP filter.
The nature of data set [2]: pH-solubility behaviour of carvedilol free base. Type of data set: physicochemical. The settings on record: pH values encountered in the distal small intestine and colon.
The conditions of data set [3]: both R and S isomer forms; cited from earlier work.

Structures can show the parent of a compound that is named as a salt. A value given as a limit tells only on which side of the number the result lay.

Consider two molecules from patent US20050175695A1 (priority 2003, published 2005).

As for `COc1ccccc1OCCNCC(O)COc1cccc2[nH]c3ccccc3c12` (stereo not drawn) [HBr salt, Carvedilol HBr], the “aqueous solubility compared with free base” value in data set [1] is reported as “much better aqueous solubility than the free base”.
In data set [2], `COc1ccccc1OCCNCC(O)COc1cccc2[nH]c3ccccc3c12` (stereo not drawn) [Carvedilol Free Base] displayed a solubility of no more than 0.1 mg per ml. For the same molecule, the alpha elimination phase result in data set [3] was “about 1.5 hours”.
